Series [1] relates to REF, 3.7, 4R, 5R and REF-GG cells. In words: Apoptosis determination after 10 Gray irradiation (propidium iodide). Type of series: cell-based, rat. The protocol: 3×10^3 cells/well in 24-well plates were allowed to attach for 12 hours and were then treated with medium containing FTI-277 in DMSO or an equivalent volume of DMSO without inhibitor. Twenty four hours after irradiation with 10 Gray using the irradiator described above, both adherent and non-adherent cells were harvested. Cells were stained with propidium iodide (Muschel et al., 1995, Cancer Res. 55:995-998). A minimum of three independent fields of 100 cells were counted for each sample. Scoring of samples was performed in a double blind manner.

Series [2] concerns H-ras. Kind of series: Western blot of H-ras prenylation in SW480 cells. Type of series: cell-based, human. Particulars: 48 hours. The protocol: FIG. 17A is an image of a Western blot depicting inhibition by FTI-277 of K-ras prenylation in human SW480 colon carcinoma cells. SW480 cells were treated with the indicated concentrations of FTI-277 (μM) for 48 hours. Samples were harvested and cell lysates were analyzed by Western blotting using either a H-ras monoclonal antibody (top) or a K-ras monoclonal antibody (bottom). Arrows indicate unfarnesylated ras bands.
(In western blotting, separated proteins are transferred to a membrane and probed.)

The subject of series [3] is H-ras. In words: Western blot of ras farnesylation in mouse prostate tumor cells. Type of series: cell-based. To be noted: primary tumor cells or metastatic clone, 24 hours. On the procedure: FIG. 13A is an image of a Western blot depicting the effects of FTI-277 on ras farnesylation in cultured cells derived from a primary and a metastatic tumor following 24 hours of treatment with the inhibitor at the indicated concentrations. Mouse prostate tumor cells transformed with H-ras^v12 and myc oncogenes were treated with the indicated doses (μM) of FTI-277. After 24 hours, samples were harvested for Western blot analysis using an anti-H-ras antibody. The upper band (arrow) corresponds to unfarnesylated H-ras. C denotes controls.
Cells were lysed in culture dishes with 1 x reducing Laemmli sample buffer. Samples were boiled, sheared and clarified by centrifugation at 14,000 rpm in a microfuge before storage at −20° C. Samples containing equal amounts of protein were separated on a 12% SDS polyacrylamide gel and electrophoretically transferred to nitrocellulose membranes. Membranes were blocked for 1-2 hours in PBS containing 0.1% Tween-20 and 5% powdered milk before antibody addition. Membranes were probed with monoclonal pan-ras antibody AB-4 (Oncogene Science, Uniondale, N.Y.) at a concentration of 0.5 μg/ml, or with monoclonal H-ras antibody LA069 (1:5000 dilution; Quality Biotech, Camden, N.J.). Detection of protein was accomplished using the ECL chemiluminescence kit (Amersham, Arlington Heights, Ill.). […]

Series [4] relates to 5R, 3.7, MR4 and REF cells. Kind of series: Radiation survival determination (clonogenic survival). Type of series: cell-based, rat. Particulars: for plating efficiency: unaffected by FTI-277. On the procedure: FIG. 14A comprises a series of graphs depicting clonogenic survival of 5R, 3.7, MR4, and REF cells following treatment with FTI-277 and irradiation of the cells. Immediately prior to irradiation, FTI-277 was added at concentrations of 2.5 μM (3.7 cells) or 5 μM (5R, MR4 and REF cells). The inhibitor was diluted out of the culture medium 24 hours later resulting in a final concentration of inhibitor of 1 μM (3.7 cells) or 2 μM (5R, MR4 and REF). The plating efficiencies of MR4 and […] were unaffected by treatment with FTI-277, being 100% and 32-38%, respectively. FTI-277 reduced the plating efficiency of 3.7 and REF cells by 50% of untreated control values which were 75% and 5%, respectively. […] The data points shown represent the mean of the results obtained from at least three separate dishes of cells. The open symbols indicate the results obtained in untreated cells and the closed symbols are those results obtained in cells treated with FTI-277. In the panel labeled 3.7, the open triangles are the results obtained in untreated MR4 cells.
Cells obtained from log growth cultures were plated in 60-mm dishes and allowed to attach for 4 hours before addition of FTI-277 to the medium. The plating medium was then removed and fresh medium containing FTI-277 in DMSO or DMSO alone (for control dishes) was added immediately before irradiation. Cells were irradiated with a Mark I cesium irradiator (J. S. Shepherd, San Fernando, Calif.) at a dose rate of 1.7 Gray per minute. Colonies of cells were stained and counted 10-14 days after irradiation (McKenna et al., 1990, supra). The surviving fraction of cells at a given dose is defined as: [formula]
Each point on the survival curves represents the mean surviving fraction from at least three dishes of cells.

The subject of series [5] is murine prostate tumor cells cultured from a metastic lung nodule. In words: Surviving fraction at 2 Gray, murine prostate tumor cells. Format: cell-based, mouse. To be noted: 5 μM FTI-277. The protocol: FIG. 14C is a series of graphs depicting the effect of 5 μM FTI-277 and 2 Gray irradiation on murine prostate tumor cells cultured from a metastic lung nodule. Cells were referred at 24 hours following irradiation in order to dilute the concentration of the inhibitor to 0.5 μM. The surviving cell fraction was assessed as described in FIG. 14B. The correlation coefficient for linear regression analysis (r^2) was greater than 0.95 in all cases.

In series [6] the test system is 3.7, 5R and REF-GG cells. In words: Morphological alterations of ras transformed REF cells. Type of series: cell-based, rat. The protocol: FIG. 11A is an image of 3.7 cells that were cultured in medium containing 2.5 μM FTI-277 (right) or DMSO (left) for 48 hours.
FIG. 11B is an image of REF-GG cells that were cultured in medium containing 5 μM FTI-277 (right) or DMSO (left) for 48 hours.

Take `COC(=O)[C@H](CCSC)NC(=O)c1ccc(NC[C@@H](N)CS)cc1-c1ccccc1` [FTI-277]: the “inhibitor concentration of maximum effect on apoptosis” value in series [1] (3.7 cells, 10 Gray) turned out to be 5 µM. Moreover, the apoptosis after irradiation entry is listed as “significant increase” in series [1] (3.7 cells, 10 Gray, 2.5 μM) and “did not result in an increase in apoptosis” in series [1] (untransformed REF cells, 10 Gray). In addition, the “extent of apoptosis induced by irradiation” value in series [1] (3.7 cells, 10 Gray, 24 hours) was “greatly enhanced”. Moreover, the irradiation-induced apoptosis entry in series [1] (4R and 5R cells, 10 Gray) is given as “augment irradiation-induced apoptosis”. In series [1] (48 hours, highest doses, 3.7 cells only), the “toxicity of the inhibitor” value was “some toxicity”. The “extent of apoptosis after irradiation” value in series [1] (REF-GG cells) is listed as “no significant effect”. Moreover, the “baseline level of apoptosis” value in series [1] (REF-GG cells, unirradiated) is recorded as “slightly increased”. Further, the “lowest concentration with altered migration of H-ras” value in series [2] worked out at 2.5 µM. Also, the H-ras farnesylation result in series [3] is recorded as “dose-dependent reduction of the farnesylated form”. Moreover, the “radioresistance (survival curves)” value in series [4] (3.7 (2.5 μM) and 5R (5 μM) cells, 24 hours after irradiation) is on record as “reduced to a level of survival which was similar to that seen in MR4 cells”. Moreover, the “reduction of plating efficiency, of untreated control values” in series [4] (3.7 and REF cells) amounted to 50%. In addition, the plating efficiency in series [4] (5R cells) is listed as 32-38%; in series [4] (MR4 cells), 100%. In addition, the radiation survival entry in series [4] (MR4 or REF cells, 5 μM) is reported as “no effect on radiation survival”. Besides, the “survival after 2 Gray irradiation” value in series [5] was 0.36. Besides, the cell morphology entry is on record as “partial reversion of transformation” in series [6] (H-ras transformed REF cells (3.7 cells 2.5 μM), 48 hours) and “did not induce altered cell morphology” in series [6] (REF-GG cells, 5 μM).
